From US20120225097A1, “PIPERAZINECARBOXAMIDE DERIVATIVE USEFUL AS A MODULATOR OF FATTY ACID AMIDE HYDROLASE (FAAH)” (priority 2009, published 2012)
Structures can show the parent of a compound that is named as a salt.

Tested on: heart muscle
Experiment: Assay Method 4: rat screening toxicity protocol
Type: in vivo
Details: 300 mg/kg daily oral, up to 4 days, male rats
Protocol: Rat Screening Toxicity Protocol
Male Crl:CD® (SD) rats approximately 8 weeks of age and weighing approximately 200 to 350 grams at initiation of dosing, were supplied by Charles River Laboratories, Hollister, Calif. Rats were individually housed in solid bottom plastic cages with 0.25 inch Cobb Bedding. Study rooms were maintained on a 12-hour light/dark cycle, with a temperature range of 64 to 79° F., and a relative humidity range of 30 to 70%. Rats were fed ad libitum (except where noted) with Rodent Diet 5008 supplied by PMI® Nutrition International, Richmond, Ind. Water was provided ad libitum by an automatic watering system and/or water bottles. The animals were quarantined for at least 5 days (prior to treatment period). Rats were selected on the basis of predose evaluations and randomly assigned to groups using a computer-generated randomization method based on body weight.
A vehicle treated group was dosed to match the highest dose volume (mL/kg) used. The test compound was administered orally daily. Test compounds were stored at room temperature. 4-({3-[(4-chlorophenyl)oxy]phenyl}methyl)-N-pyridin-3-ylpiperazine-1-carboxamide was dosed in solution using 20% cyclodextrin as the vehicle. N-pyridin-3-yl-4-{3-[4-(trifluoromethyl)phenoxy]benzyl}piperazine-1-carboxamide bis-hydrochloride dihydrate was dosed in solution using water as the vehicle. Rats in the vehicle treated and test article treated were dosed for up to 4 days. Mortality checks were performed at least once a day on all animals pre-dose and post-dose. Clinical observations were performed at least once during the pre-dose period. Clinical observations were recorded prior to dosing, at least once after daily dosing, and prior to scheduled necropsy for animals assessed for toxicology. Body Weights were determined at least once during the pre-dose period, prior to the first dose, once during dose administration and once after the last dose, and once prior to necropsy for tissue body weight ratios. […] Observations were recorded at necropsy and tissue trimming. […] Clinical pathology was not determined on these animals. […]

Compound	lesions in heart muscle	lesions in heart muscle (listed as N-pyridin-3-yl-4-{3-[4-(trifluoromethyl)phenoxy]benzyl}piperazine-1-carboxamide , bis-hydrochloride dihydrate)	lesions in heart muscle (listed as N-pyridin-3-yl-4-{3-[4-(trifluoromethyl)phenoxy]benzyl}piperazine-1-carboxamide, bis-hydrochloride dihydrate)
O=C(Nc1cccnc1)N1CCN(Cc2cccc(Oc3ccc(Cl)cc3)c2)CC1 [4-({3-[(4-Chlorophenyl)oxy]phenyl}methyl)-N-pyridin-3-ylpiperazine-1-carboxamide]	developed lesions in heart muscle	–	–
O=C(Nc1cccnc1)N1CCN(Cc2cccc(Oc3ccc(C(F)(F)F)cc3)c2)CC1 [Example 1, N-Pyridin-3-yl-4-{3-[4-(trifluoromethyl)phenoxy]benzyl}piperazine-1-carboxamide, bis-hydrochloride dihydrate]	–	absent	lacked such lesions
